Data set [1] in a line: Solubility of DENSPM hydrochloride salt in sterile water for injection. It counts as physicochemical. To be noted: as its hydrochloride salt. An excerpt: The terms “pharmaceutical composition” and “pharmaceutical preparation” are used interchangeably herein to mean DENSPM in association with a pharmaceutically-acceptable carrier. Excipients and/or adjuvants may optionally be added to the pharmaceutical preparations. DENSPM preparations may be conveniently provided in unit dosage form and may be prepared by methods well-known in the art of pharmacy. Formulations suitable for intravenous administration are preferred. […] Such a solution may be filled into individual dose vials and lyophilized for future reconstitution and administration.

For data set [2] the following is noted: stated as known effect of DENSPM; cited from earlier work.
Data set [3] in a line: Physical and chemical stability of DENSPM preparations at room temperature. In kind it is physicochemical. On the procedure: DENSPM may be supplied as a lyophilized powder, for example packaged in 10 mL clear glass vials containing 215 mg. Such a lyophilized powder may be prepared by dissolving DENSPM hydrochloride in sterile WFI to provide a 5% solution. Such solution may be pH adjusted to a pH of preferably between about 5.8 and 6.2, most preferably 6.0, with 2N NaOH. 4.3 ml of this solution is sterile filled into the glass vials thru Millipak (R) 0.45 and 0.22 micron filters and then lyophilized. […] DENSPM is reconstituted with 4.3 mL of water for injection, USP. The resulting solution contains 50 mg/mL of DENSPM and is chemically and physically stable for up to approximately 96 hours at room temperature. When further diluted in 50 mL normal saline, the resulting admixture is chemically and physically stable for up to 24 hours when stored at room temperature. After reconstitution, the drug is normally used within 8 hours because it contains no preservatives.

Here are results for 1 molecule from patent US20070167528A1, “Methods of treating hepatocellular carcinoma with denspm” (Genzyme Corporation, priority 2004, published 2007).

For the molecule `CCNCCCNCCCNCCCNCC` [DENSPM, N,N′-Bis[3-(ethylamino)propyl],1,3-propanediamine], the solubility result in data set [1] was “relatively high solubility”. Besides, the serum creatinine levels entry in data set [2] is “transiently and reversibly elevate serum creatinine levels”. In data set [3] (further diluted in 50 mL normal saline, stored at room temperature), the “chemical and physical stability of diluted admixture” value is recorded as “up to 24 hours”. Further, the “physical and chemical stability of lyophilized powder” value in data set [3] (lyophilized powder from 5% DENSPM hydrochloride solution, pH about 6.0, stored at room temperature) is “physically and chemically stable”. For the same molecule, the “chemical and physical stability of reconstituted solution” value in data set [3] (reconstituted with 4.3 mL water for injection, 50 mg/mL, room temperature) is ≤ 96 h.
